Assay results published in publication PMC3639044 (Molecular Biology of the Cell, 2013).

Biological target: T1, TbPLK^as (analogue-sensitive Trypanosoma brucei Polo-like kinase) (Trypanosoma brucei, UniProt Q57VI0, C57V/L118G)
T1 sequence (Q57VI0 1-768 C57V/L118G): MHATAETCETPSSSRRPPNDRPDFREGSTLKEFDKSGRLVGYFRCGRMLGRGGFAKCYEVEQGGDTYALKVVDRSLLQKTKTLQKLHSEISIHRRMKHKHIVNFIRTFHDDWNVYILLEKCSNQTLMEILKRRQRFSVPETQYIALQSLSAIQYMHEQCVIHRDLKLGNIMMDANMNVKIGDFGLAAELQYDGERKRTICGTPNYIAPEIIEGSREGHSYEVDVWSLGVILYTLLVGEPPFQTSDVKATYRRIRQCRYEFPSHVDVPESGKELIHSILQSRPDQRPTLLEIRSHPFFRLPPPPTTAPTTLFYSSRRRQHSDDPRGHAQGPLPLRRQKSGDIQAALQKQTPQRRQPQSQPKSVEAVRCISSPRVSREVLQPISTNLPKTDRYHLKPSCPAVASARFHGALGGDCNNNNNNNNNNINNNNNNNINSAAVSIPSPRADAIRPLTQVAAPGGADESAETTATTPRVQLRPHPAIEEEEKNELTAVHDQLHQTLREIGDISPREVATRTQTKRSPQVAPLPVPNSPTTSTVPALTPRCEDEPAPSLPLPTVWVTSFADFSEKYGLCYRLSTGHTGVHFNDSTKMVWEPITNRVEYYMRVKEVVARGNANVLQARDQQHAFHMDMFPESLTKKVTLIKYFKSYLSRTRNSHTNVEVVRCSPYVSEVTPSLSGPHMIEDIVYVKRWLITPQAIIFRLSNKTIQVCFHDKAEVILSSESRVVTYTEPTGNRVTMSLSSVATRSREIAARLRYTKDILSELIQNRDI
Type: biochemical

`Cc1cccc(Cc2nn(C(C)(C)C)c3ncnc(N)c23)c1` [3MB-PP1] gave an IC50 of roughly 250 nM.
